Test results reported in patent US20240059712A1, “BIFUNCTIONAL COMPOUNDS AND PHARMACEUTICAL USES THEREOF” (priority 2022, published 2024).

Molecular target: T1, KRAS^G12D protein (Homo sapiens, UniProt P01116, G12D)
T1 construct: host or cells: Aspc-1 (AsPC-1) cells
Test: Protein degradation study (western blot) in Aspc-1 cells
Format: cell-based
Conditions: for inhibition at 0.001 µM / inhibition at 0.005 µM / inhibition at 0.05 µM / inhibition at 1 µM / inhibition at 0.1 µM: ASPC1, 24 h, 24 hours; for inhibition at 0.001 µM: Aspc-1 cells treated with 1 nM compound; for inhibition at 0.001 µM / inhibition at 0.005 µM / inhibition at 0.05 µM: read-out: Rate of degradation; for inhibition at 0.005 µM: Aspc-1 cells treated with 0.005 μM compound; for inhibition at 0.05 µM: Aspc-1 cells treated with 50 nM compound; for DC50: Aspc-1 cells, half-maximum degradation concentration, read-out: DC50 of compounds induced Ras G12D protein degradation; for inhibition at 1 µM: Aspc-1 cells treated with 1 μM compound; for inhibition at 1 µM / inhibition at 0.1 µM: read-out: Rate of protein degradation; for inhibition at 0.1 µM: Aspc-1 cells treated with 0.1 μM compound
Protocol: Aspc-1 (Cobioer, CBP60546) cells in exponential growth phase were inoculated on a 6-well cell culture plate (Corning, 3516) at density of 1E6/well; and cells in the plate were cultured in 37° C. incubator containing 5%-carbon dioxide. The next day, testing compounds were dissolved in DMSO (Sigma, RNBF5902) for the preparation of a 10-mM concentration stock solution. The stock solution was diluted with complete medium (RPMI-1640 supplemented with 10% fetal bovine serum, 1% penicillin-streptomycin), yielding working solutions of various concentrations. The plate, after the addition of compounds, was placed in a 5% carbon dioxide incubator, and incubated at 37° C. for 24 hours (final DMSO concentration was 0.1%). The plate was then removed from the incubator, and the cells were washed twice with precooled PBS (Gibco, 14190250), followed by addition of 80-μL RIPA lysis buffer (containing protease inhibitor (Invitrogen™, AM2696)) to each well. The adherent cells were scraped off with a cell scraper, and the cell lysate was transferred to a 1.5-mL centrifuge tube followed with a 30-minute incubation on ice. The lysate was then clarified with centrifugation at 14000 rpm for 10 min at 4° C. The supernatant was transferred into a new 1.5-mL centrifuge tube, and protein concentration was measured with BCA protein detection kit (Thermo Fisher, 23225). G12D protein level was assessed by western blot.
A mixture of cell lysate (40 μL) and loading buffer (10 μL, 5×SDS (Beyotime, P0015L)) was denatured in a water-bath at 95° C. for 10 min. The denatured protein sample, at 30 μL/well, was loaded into corresponding well of 4-20% Bis-Tris gel (Kingsley, M00656). Protein samples were initially electrophoresed at 80 V for 30 minutes, followed by 120 V for 40 minutes, until the bromophenol blue strip ran to an appropriate position. After electrophoresis, iBlot2 (Life Technologies, IB21001) was used to transfer the separated samples onto PVDF film. The PVDF membrane was washed with double-distilled water and then blocked in TBST (Thermo Scientific, 28360) buffer containing 5% non-fat milk, for 2 hours. Blocked membrane was rinsed with tris-buffered saline tween-20 (Thermo Scientific, 28360, TBST) three times, 10 minutes each. Membrane was then incubated with 1:1000 diluted KRAS primary antibody (CST, cat #14429S) overnight at 4° C. Membrane was rinsed in a way described previously followed by 1 hour incubation of secondary antibody at room temperature. After washing the film for three times with TBST, ECL color developing solution was applied, and image was captured with Biorad Chemi Doc gel imager. The band gray value was quantified (Image Lab), and protein degradation level was calculated according to the following formula:
Level of RAS protein expression=(RAS-compound/GAPDH)/(RAS-DMSO/GAPDH)
Level of degradation (%)=(1−Rate of RAS protein expression)×100
Symbols of −, +, ++, +++ indicate that the degradation level of Ras protein induced by testing compounds are […], 11 to 30%, 31 to 60% and greater than 60%, respectively.
Half-maximum degradation concentrations (DC50s) of testing compounds were calculated using GraphPad Prism and their values were shown in Table 6. Symbols of […] represent DC50s equal or less than 10 nM, 11-50 nM, 51-100 nM, and 101-200 nM, respectively.

T1 sequence (P01116 1-188 isoform P01116-2 G12D): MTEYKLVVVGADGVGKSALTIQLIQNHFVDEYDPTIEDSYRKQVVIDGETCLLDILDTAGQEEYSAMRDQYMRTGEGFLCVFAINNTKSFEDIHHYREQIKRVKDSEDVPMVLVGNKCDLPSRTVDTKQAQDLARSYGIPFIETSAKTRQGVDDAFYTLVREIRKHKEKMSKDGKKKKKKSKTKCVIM

Molecule C#Cc1c(F)ccc2cc(O)cc(-c3ncc4c(N5CC6CCC(C5)N6)nc(OCC5(CN6CCC(CN7CCC(c8cccc(N9CC(=O)NC9=O)c8)CC7)CC6)CC5)nc4c3F)c12 [Compound 7a] has an inhibition at 0.001 µM of 11 to 30%.

With C#Cc1c(F)ccc2cc(O)cc(-c3ncc4c(N5CC6CCC(C5)N6)nc(OCC5(CN6CCC(CN7CCC(c8cccc(N9CCC(=O)NC9=O)c8C)CC7)CC6)CC5)nc4c3F)c12 [Compound 8a] the inhibition at 0.001 µM was 11 to 30%.

In the case of Cc1ccc2[nH]ncc2c1-c1ncc2c(N3CC4CCC(C3)N4)nc(OCC3(CN4CCC5(CC4)CC(N4CCC(c6ccc7c8c(cccc68)C(=O)N7C6CCC(=O)NC6=O)CC4)C5)CC3)nc2c1F (stereo not drawn) [Compound 18a], the inhibition at 0.005 µM is reported as 11 to 30%.

With Nc1cc(Cl)c(C(F)(F)F)c(-c2ncc3c(N4CC5CCC(C4)N5)nc(OCC4(CN5CCC6(CC5)CC(N5CCC(c7cccc(N8CCC(=O)NC8=O)c7)CC5)C6)CC4)nc3c2F)c1 [Compound 19a] the inhibition at 0.005 µM was 11 to 30% and the inhibition at 0.05 µM was 11 to 30%.

C#Cc1c(F)ccc2cccc(-c3ncc4c(N5CC6CCC(C5)N6)nc(OCC5(CN6CCC7(CC6)CC(N6CCC(c8ccc(NC9CCC(=O)NC9=O)cc8F)CC6)C7)CC5)nc4c3F)c12 (stereo not drawn) [Compound 22a] was tested, and the inhibition at 0.005 µM was 11 to 30% and the inhibition at 0.05 µM was 31 to 60%.

In the case of C#Cc1c(F)ccc2cc(O)cc(-c3ncc4c(N5CC6CCC(C5)N6)nc(OCC5(CN6CC7(CC(CN8CCC(c9ccc%10c(C%11CCC(=O)NC%11=O)nn(C)c%10c9)CC8)C7)C6)CC5)nc4c3F)c12 (stereo not drawn) [Compound 25a], the inhibition at 0.005 µM is reported as 31 to 60% and the inhibition at 0.05 µM is reported as 31 to 60%.

Molecule C#Cc1c(F)ccc2cc(O)cc(-c3ncc4c(N5CC6CCC(C5)N6)nc(OCC5(CN6CC7(CC(C(=O)N8CCC(c9ccc%10c(C%11CCC(=O)NC%11=O)nn(C)c%10c9)CC8)C7)C6)CC5)nc4c3F)c12 (stereo not drawn) [Compound 27a] has an inhibition at 0.005 µM of 11 to 30% and an inhibition at 0.05 µM of 11 to 30%.

C#Cc1c(F)ccc2cc(O)cc(-c3ncc4c(N5CC6CCC(C5)N6)nc(OCCCN5CCN(C(=O)CN6CCC(c7ccc8c(C9CCC(=O)NC9=O)nn(C)c8c7)CC6)CC5)nc4c3F)c12 (stereo not drawn) [Compound 33] gave a DC50 of 11 to 50 nM.

C#Cc1c(F)ccc2cc(O)cc(-c3ncc4c(N5CC6CCC(C5)N6)nc(OCC5(CN6CCC(N7CC(N8CCC(c9ccc%10c(C%11CCC(=O)NC%11=O)nn(C)c%10c9)CC8)C7)CC6)CC5)nc4c3F)c12 (stereo not drawn) [Compound 34a] was tested, and the inhibition at 0.005 µM was 31 to 60% and the inhibition at 0.05 µM was greater than 60%.

With C#Cc1c(F)ccc2cc(O)cc(-c3ncc4c(N5CC6CCC(C5)N6)nc(OCC5(CN6CCC(N7CC(C(=O)N8CCC(c9ccc%10c(C%11CCC(=O)NC%11=O)nn(C)c%10c9)CC8)C7)CC6)CC5)nc4c3F)c12 (stereo not drawn) [Compound 35a] the inhibition at 0.005 µM was 31 to 60% and the inhibition at 0.05 µM was greater than 60%.

In the case of C#Cc1c(F)ccc2cc(O)cc(-c3ncc4c(N5CC6CCC(C5)N6)nc(OCC5(CN6CCC7(CC6)CC(N6CCC(c8ccc(NC9%10CC(C9)C(=O)NC%10=O)cc8F)CC6)C7)CC5)nc4c3F)c12 [Compound 36a], the inhibition at 0.005 µM is reported as greater than 60%, the inhibition at 0.05 µM is reported as greater than 60% and the DC50 is reported as less than 10 nM.

C#Cc1c(F)ccc2cc(O)cc(-c3ncc4c(N5CC6CCC(C5)N6)nc(OCC5(CN6CCC7(CC6)CC(N6CCC(c8ccc(CN9CCC(=O)NC9=O)cc8)CC6)C7)CC5)nc4c3F)c12 [Compound 38a] gave an inhibition at 0.005 µM of 11 to 30%.

Work on C#Cc1c(F)ccc2cc(O)cc(-c3ncc4c(N5CC6CCC(C5)N6)nc(OCC5(CN6CCC7(CC6)CC(c6cc8c(cc6F)c(N6CCC(=O)NC6=O)nn8C)C7)CC5)nc4c3F)c12 [Compound 39a] yielded an inhibition at 0.005 µM greater than 60% and a DC50 of less than 10 nM.

Molecule C#Cc1c(F)ccc2cc(O)cc(-c3ncc4c(N5CC6CCC(C5)N6)nc(OCC5(CN6CCC7(CC6)CC(N6CCC(c8cc9c(cc8F)c(C8CCC(=O)NC8=O)nn9C)CC6)C7)CC5)nc4c3F)c12 (stereo not drawn) [Compound 41a] has an inhibition at 0.005 µM greater than 60% and an inhibition at 0.05 µM greater than 60%.

For C#Cc1c(F)ccc2cc(O)cc(-c3ncc4c(N5CC6CCC(C5)N6)nc(OC5CCN(CCCCCCCCCCC(=O)N[C@H](C(=O)N6C[C@H](O)C[C@H]6C(=O)NCc6ccc(-c7scnc7C)cc6)C(C)(C)C)CC5)nc4c3F)c12 [Compound 43], the DC50 was 51 to 100 nM.

C#Cc1c(F)ccc2cc(O)cc(-c3ncc4c(N5CC6CCC(C5)N6)nc(OC5CCN(CCCCCCCCCCC(=O)N[C@H](C(=O)N6C[C@H](O)C[C@H]6C(=O)N[C@@H](C)c6ccc(-c7scnc7C)cc6)C(C)(C)C)CC5)nc4c3F)c12 [Compound 45] gave a DC50 of 11 to 50 nM.

Molecule C#Cc1c(F)ccc2cc(O)cc(-c3ncc4c(N5CC6CCC(C5)N6)nc(OC5CCN(CCCCCCCCCCC(=O)N[C@H](C(=O)N6C[C@H](O)C[C@H]6C(=O)N[C@@H](C)c6ccc(-c7scnc7C)cc6)C(C)(C)C)C5)nc4c3F)c12 (stereo partly drawn) [Compound 55] has a DC50 of 51 to 100 nM.

With C#Cc1c(F)ccc2cc(O)cc(-c3ncc4c(N5CC6CCC(C5)N6)nc(OCC5CCN(CCCCCCCCCCC(=O)N[C@H](C(=O)N6C[C@H](O)C[C@H]6C(=O)N[C@@H](C)c6ccc(-c7scnc7C)cc6)C(C)(C)C)C5)nc4c3F)c12 (stereo partly drawn) [Compound 56] the DC50 was 11 to 50 nM.

C#Cc1c(F)ccc2cc(O)cc(-c3ncc4c(N5CC6CCC(C5)N6)nc(OCC5CCN(CCCCCCCCCCC(=O)N6CCC(c7ccc8c(C9CCC(=O)NC9=O)nn(C)c8c7)CC6)C5)nc4c3F)c12 (stereo not drawn) [Compound 57] gave a DC50 of less than 10 nM.

C#Cc1c(F)ccc2cc(O)cc(-c3ncc4c(N5CC6CCC(C5)N6)nc(OCCCN5CCC(C(=O)N6CCN(C(=O)C[C@H](NC(=O)[C@@H]7C[C@@H](O)CN7C(=O)[C@@H](NC(=O)C7(F)CC7)C(C)(C)C)c7ccc(-c8scnc8C)cc7)CC6)CC5)nc4c3F)c12 [Compound 65] showed an inhibition at 1 µM of 11 to 30%.

C#Cc1c(F)ccc2cc(O)cc(-c3ncc4c(N5CC6CCC(C5)N6)nc(OC5CCN(CC(=O)N6CCC(c7ccc8c(C9CCC(=O)NC9=O)nn(C)c8c7)CC6)CC5)nc4c3F)c12 (stereo not drawn) [Compound 69] was tested, and the inhibition at 0.1 µM was greater than 60% and the inhibition at 1 µM was greater than 60%.

With C#Cc1c(F)ccc2cc(O)cc(-c3ncc4c(N5CC6CCC(C5)N6)nc(OC5CCN(CC6CCN(C(=O)C[C@H](NC(=O)[C@@H]7C[C@@H](O)CN7C(=O)[C@@H](NC(=O)C7(F)CC7)C(C)(C)C)c7ccc(-c8scnc8C)cc7)CC6)CC5)nc4c3F)c12 [Compound 70] the inhibition at 0.1 µM was 11 to 30% and the inhibition at 1 µM was greater than 60%.

For C#Cc1c(F)ccc2cc(O)cc(-c3ncc4c(N5CC6CCC(C5)N6)nc(OCCCN5CCN(CCC(=O)N6CCC(c7ccc8c(C9CCC(=O)NC9=O)nn(C)c8c7)CC6)CC5)nc4c3F)c12 (stereo not drawn) [Compound 74], the inhibition at 0.1 µM was 31 to 60%.

In the case of C#Cc1c(F)ccc2cc(O)cc(-c3ncc4c(N5CC6CCC(C5)N6)nc(OCC5(CN6CCC(c7ccc8c(C9CCC(=O)NC9=O)nn(C)c8c7)CC6)CC5)nc4c3F)c12 (stereo not drawn) [Compound 99], the inhibition at 0.1 µM is reported as greater than 60%.

With C#Cc1c(F)ccc2cc(O)cc(-c3ncc4c(N5CC6CCC(C5)N6)nc(OCC5(CN6CCC(C(=O)N7CCC(c8ccc9c(C%10CCC(=O)NC%10=O)nn(C)c9c8)CC7)CC6)CC5)nc4c3F)c12 (stereo not drawn) [Compound 100] the inhibition at 0.1 µM was greater than 60%.

In the case of C#Cc1c(F)ccc2cc(O)cc(-c3ncc4c(N5CC6CCC(C5)N6)nc(OC5CCN(CC(=O)N6CCC7(CC6)CC(N6CCC(c8ccc9c(C%10CCC(=O)NC%10=O)nn(C)c9c8)CC6)C7)C5)nc4c3F)c12 (stereo not drawn) [Compound 101], the inhibition at 0.1 µM is reported as 11 to 30%.

With C#Cc1c(F)ccc2cc(O)cc(-c3ncc4c(N5CC6CCC(C5)N6)nc(N5CC(N6CCN(C(=O)CN7CCC(c8ccc9c(C%10CCC(=O)NC%10=O)nn(C)c9c8)CC7)CC6)C5)nc4c3F)c12 (stereo not drawn) [Compound 120] the inhibition at 0.1 µM was 11 to 30%.
